According to patent US5830672A, “Elisa kit for the rapid determination of N-acetyltransferase (NAT2) phenotypes” (priority 1996, dated 1998):

How the values were obtained:
AAMU-Ab = assay: Competitive antigen ELISA, cross-reactivity of AAMU-Ab; assay type: binding, rabbit; conditions: for % Cross-Reaction AAMU-Ab: 0 = absence of inhibition or inhibition no higher than 40% at highest concentration tested (5 × 10^-3 M)
Description: (§1) Four mature females New Zealand white rabbits (Charles River Canada, St-Constant, Que., Canada) were used for antibody production. The protocol employed in this study was approved by the McGill University Animal Care Committee in accordance with the guidelines from the Canadian Council on Animal Care. An isotonic saline solution (0.6 mL) containing […] of BSA conjugated antigen was emulsified with 0.6 mL of a complete Freund's adjuvant. 0.5 mL of the emulsion (100 mg of antigen) was injected per rabbit intramuscularly or subcutaneously. Rabbits were subsequently boosted at intervals of three weeks with 50 mg of antigen emulsified in incomplete Freund's adjuvant. Blood was collected by venipuncture of the ear 10-14 days after boosting. Antisera were stores at 4° C. in the presence of 0.01% sodium azide. Buffers and water without additives were filtered through millipore filters and kept for 1 week. BSA, antibodies, Tween™ 20 and horse radish peroxidase conjugates were added to these buffers and water just prior to use. Urine samples were usually collected 4 hours after drinking a cup of coffee (instant or brewed with approximately 100 mg of caffeine per cup) and stored at -80° C. They were diluted 10 times with sodium phosphate buffer (620 mosm, pH 7.50) and were subsequently diluted with water to give concentrations of AAMU and 1X no higher than 3×10^-6 M in the ELISA. All the pipettings were done with an eight-channel pipette, except those of the antibody and sample solutions. Starting with the last well, 100 μL of a carbonate buffer (100 mM, pH 9.6) containing 2.5 μg mL^-1 antibodies was pipetted. […] After the initial wash, unoccupied sites were blocked by incubation for 90 min. at room temperature with 100 μL TPB containing 3% BSA. The wells were washed four times with 100 μL TPB. […] AAMU or 1X, 2×10^-4 to 2×10^-8 M) or sample in duplicate. The microplate was gently shaken with an orbital shaker at room temperature for 3-4 hours. […] To the washed plate was added 150 μL of a substrate buffer composed of citric acid (25 mM) and sodium phosphate dibasic buffer (50 mM, pH 5.0) containing 0.06% hydrogen peroxide and 0.04% o-phenylenediamine hydrochloride. […] Buffers and water without additives were filtered through millipore filters and kept for 1 week. BSA, antibodies, Tween™ 20 and horse radish peroxidase conjugates were added to these buffers and water just prior to use. Urine samples were usually collected 4 hours after drinking a cup of coffee (instant or brewed with approximately 100 mg of caffeine per cup) and stored at -80° C. They were diluted 10 times with sodium phosphate buffer (620 mosm, pH 7.50) and were subsequently diluted with water to give concentrations of AAMU and 1X no higher than 3×10^-6 M in the ELISA. All the pipettings were done with an eight-channel pipette, except those of the antibody and sample solutions. Starting with the last well, 100 μL of a carbonate buffer (100 mM, pH 9.6) containing 2.5 μg mL^-1 antibodies was pipetted. […] After the initial wash, unoccupied sites were blocked by incubation for 90 min. at room temperature with 100 μL TPB containing 3% BSA. The wells were washed four times with 100 μL TPB. […] AAMU or 1X, 2×10^-4 to 2×10^-8 M) or sample in duplicate. The microplate was gently shaken with an orbital shaker at room temperature for 3-4 hours. […] To the washed plate was added 150 μL of a substrate buffer composed of citric acid (25 mM) and sodium phosphate dibasic buffer (50 mM, pH 5.0) containing 0.06% hydrogen peroxide and 0.04% o-phenylenediamine hydrochloride. […] Each curve represents triplicate determinations in a single run. The error bars represent standard deviations. For data point with no error bars, the error bars are less the size of the symbol. […] The cross reactivities of AAMU-Ab and 1X-Ab were tested using a wide variety of caffeine metabolites and structural analogs (Table 1 below).

1X-Ab = assay: Competitive antigen ELISA, cross-reactivity of 1X-Ab; assay type: binding, rabbit; conditions: for % Cross-Reaction 1X-Ab: 0 = absence of inhibition or inhibition no higher than 40% at highest concentration tested (5 × 10^-3 M)
Description: as §1

[1] = test system: N-acetyltransferase (NAT2); conditions: rapid acetylators at greater risk of severe toxicity; cited from earlier work

In the case of `CC(=O)Nc1c(N)[nH]c(=O)n(C)c1=O`, the “% Cross-Reaction AAMU-Ab” value (AAMU-Ab) is reported as 100%, the IC50 (AAMU-Ab; AAMU-Ab, read-out: concentration required for 50% inhibition in the competitive antigen ELISA) is reported as 1.5 µM and the “% Cross-Reaction 1X-Ab” value (1X-Ab) is reported as 0%.

With `Cn1c(=O)c2c(ncn2C)n(C)c1=O` [1,3,7-Trimethyl Xanthine (Caffeine), 1,3,7-Trimethyl Xanthine] the “% Cross-Reaction AAMU-Ab” value (AAMU-Ab) was 0% and the “% Cross-Reaction 1X-Ab” value (1X-Ab) was 0%.

With `Cn1c(=O)c2[nH]cnc2n(C)c1=O` [1,3-Dimethyl Xanthine (Theophylline), 1,3-Dimethyl Xanthine] the “% Cross-Reaction AAMU-Ab” value (AAMU-Ab) was 0% and the “% Cross-Reaction 1X-Ab” value (1X-Ab) was 0.2%.

For `Cn1c(=O)[nH]c2ncn(C)c2c1=O` [1,7-Dimethyl Xanthine (Paraxanthine), 1,7-Dimethyl Xanthine], the “% Cross-Reaction AAMU-Ab” value (AAMU-Ab) was 0% and the “% Cross-Reaction 1X-Ab” value (1X-Ab) was 0.5%.

For `Cn1c(=O)[nH]c2[nH]c(=O)n(C)c2c1=O` [1,7-Dimethyluric acid], the “% Cross-Reaction AAMU-Ab” value (AAMU-Ab) was 0% and the “% Cross-Reaction 1X-Ab” value (1X-Ab) was 0%.

With `Cn1c(=O)[nH]c2nc[nH]c2c1=O` [1-Methyl Xanthine (1X), 1-Methyl Xanthine] the “% Cross-Reaction AAMU-Ab” value (AAMU-Ab) was 0%, the “% Cross-Reaction 1X-Ab” value (1X-Ab) was 100% and the IC50 (1X-Ab; 1X-Ab, read-out: concentration required for 50% inhibition in the competitive antigen ELISA) was 10 µM.

In the case of `Cn1c(=O)[nH]c2[nH]c(=O)[nH]c2c1=O` [1-Methyluric acid], the “% Cross-Reaction AAMU-Ab” value (AAMU-Ab) is reported as 0% and the “% Cross-Reaction 1X-Ab” value (1X-Ab) is reported as 11%.

For `Cn1cnc2c1c(=O)[nH]c(=O)n2C` [3,7-Dimethyl Xanthine (Theobromine), 3,7-Dimethyl Xanthine], the “% Cross-Reaction AAMU-Ab” value (AAMU-Ab) was 0% and the “% Cross-Reaction 1X-Ab” value (1X-Ab) was 0%.

In the case of `Cn1c(=O)[nH]c(=O)c2[nH]cnc21` [3-Methyl Xanthine], the “% Cross-Reaction AAMU-Ab” value (AAMU-Ab) is reported as 0% and the “% Cross-Reaction 1X-Ab” value (1X-Ab) is reported as 0%.

In the case of `CC(=O)Nc1c(N)n(C)c(=O)n(C)c1=O` [5-Acetamino-6-amino-1,3-dimethyluracil], the “% Cross-Reaction AAMU-Ab” value (AAMU-Ab) is reported as 0% and the “% Cross-Reaction 1X-Ab” value (1X-Ab) is reported as 0%.

With `CC(=O)Nc1c(N)[nH]c(=O)[nH]c1=O` [5-Acetamino-6-amino-uracil] the “% Cross-Reaction AAMU-Ab” value (AAMU-Ab) was 0.6% and the “% Cross-Reaction 1X-Ab” value (1X-Ab) was 0%.

In the case of `Cn1cnc2[nH]c(=O)[nH]c(=O)c21` [7-Methyl Xanthine], the “% Cross-Reaction AAMU-Ab” value (AAMU-Ab) is reported as 0% and the “% Cross-Reaction 1X-Ab” value (1X-Ab) is reported as 0%.

With `Cc1nc2[nH]c(=O)[nH]c(=O)c2[nH]1` [8-Methyl Xanthine] the “% Cross-Reaction AAMU-Ab” value (AAMU-Ab) was 0% and the “% Cross-Reaction 1X-Ab” value (1X-Ab) was 0%.

With `Nc1nc2nc[nH]c2c(=O)[nH]1` [Guanine] the “% Cross-Reaction AAMU-Ab” value (AAMU-Ab) was 0% and the “% Cross-Reaction 1X-Ab” value (1X-Ab) was 0%.

For `O=c1[nH]cnc2nc[nH]c12` [Hypoxanthine], the “% Cross-Reaction AAMU-Ab” value (AAMU-Ab) was 0% and the “% Cross-Reaction 1X-Ab” value (1X-Ab) was 0%.

With `O=c1cc[nH]c(=O)[nH]1` [Uracil] the “% Cross-Reaction AAMU-Ab” value (AAMU-Ab) was 0% and the “% Cross-Reaction 1X-Ab” value (1X-Ab) was 0%.

With `O=c1[nH]c(=O)c2[nH]c(=O)[nH]c2[nH]1` [Uric acid] the “% Cross-Reaction AAMU-Ab” value (AAMU-Ab) was 0% and the “% Cross-Reaction 1X-Ab” value (1X-Ab) was 0%.

For `O=c1[nH]c(=O)c2[nH]cnc2[nH]1` [Xanthine], the “% Cross-Reaction AAMU-Ab” value (AAMU-Ab) was 0% and the “% Cross-Reaction 1X-Ab” value (1X-Ab) was 0%.

For `CN(C)CCN1C(=O)c2cccc3cc(N)cc(c23)C1=O` [amonafide], the “correlation between toxicity and acetylator phenotype” value [1] is listed as “direct correlation between toxicity and the acetylator phenotype”.
